Source: PMC4712933, “Development of Follicle-Stimulating Hormone Receptor Binding Probes to Image Ovarian Xenografts” (Journal of biotechnology & biomaterials, 2015)
Where a SMILES comes first, the peptide text is derived from it. The star is where a group is joined. 5FAM = O=C1OC2(c3ccc(O)cc3Oc3cc(O)ccc32)c2ccc(C(=O)*)cc21

How the values were obtained:
FSHR-rich Sertoli cells = FSHR-rich Sertoli cells from Bovine Calf testes; ref 29 (Lee et al); read-out: EC50, radio-ligand binding assay; cited from earlier work
FSHR [1] = conditions: cited from earlier work
Source text: FSHR belongs to G protein-coupled receptor and consists of a transmembrane and an extracellular domain, where the former is characterized by a seven helical repeats and the latter by multiple leucine-rich repeats. FSHR is expressed on normal ovarian epithelium, e.g., the fallopian tubal epithelium, and shares about 70% transmembrane domain sequence with other G protein-coupled receptors, such as L ...

FSHR on OVCAR-3 cells = molecular target: T1, FSHR on OVCAR-3 cells (Homo sapiens, UniProt P23945); experiment: Flow cytometry binding of BI-10^FAM to OVCAR-3 cells
T1 construct: endogenous in cells; host or cells: OVCAR-3 cells
T1 sequence (P23945 18-695): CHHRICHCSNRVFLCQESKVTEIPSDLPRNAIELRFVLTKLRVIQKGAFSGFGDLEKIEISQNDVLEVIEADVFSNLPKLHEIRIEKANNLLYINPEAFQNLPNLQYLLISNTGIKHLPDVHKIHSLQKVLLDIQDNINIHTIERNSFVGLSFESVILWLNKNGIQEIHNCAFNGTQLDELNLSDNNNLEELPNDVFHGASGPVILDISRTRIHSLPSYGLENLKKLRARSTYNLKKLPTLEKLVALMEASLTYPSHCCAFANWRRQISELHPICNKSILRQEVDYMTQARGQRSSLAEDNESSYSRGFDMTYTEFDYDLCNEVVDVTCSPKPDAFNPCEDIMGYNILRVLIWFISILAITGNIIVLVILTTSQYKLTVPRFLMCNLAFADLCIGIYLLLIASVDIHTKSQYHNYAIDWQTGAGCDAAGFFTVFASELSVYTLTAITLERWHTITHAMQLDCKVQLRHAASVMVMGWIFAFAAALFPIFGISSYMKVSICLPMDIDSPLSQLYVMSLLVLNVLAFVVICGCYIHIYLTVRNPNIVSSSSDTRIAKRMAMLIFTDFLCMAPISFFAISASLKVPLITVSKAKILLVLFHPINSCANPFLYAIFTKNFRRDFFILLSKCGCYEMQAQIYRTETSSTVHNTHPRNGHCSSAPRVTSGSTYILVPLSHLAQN
Protocol: OVCAR-3 cells (generously provided by Dr. Mellisa Fishell of Indiana University School of Medicine) were chosen for in vitro binding experiment due to its high level of FSHR expression. For the first 2–3 passages, the cells were plated in […] flasks using RPMI medium (supplemented with 5 μM Insulin (Sigma), 20% FBS (Hyclone), Sodium private (GIBCO), and Pen Strep (GIBCO)), and placed in an incubator (5% CO2 at a temperature of 37°C incubator) to maintain viability. For peptide binding experiments, cells were plated in six-well plates with the medium and environment conditions as previously described. Medium was changed every 2–3 days until cells reached more than 90% confluency. […] These samples were ready for imaging within the flow cytometer. […]
Each sample of OVCAR-3 cells was placed within the flow cytometer (Beckman Coulter FC500) and the FITC fluorescent intensity from the BI-10^FAM peptide bound to the OVCAR-3 cells were acquired. A TOPO-3 dye (Sigma) in 1 nM concentration was used to acquire the fluorescence from only viable cells in a two-color flow cytometry assay. Ten thousand cells were counted and the fluorescence measured in each sample. […] The EC50 value (binding affinity) and receptor saturation intensity were calculated using a nonlinear regression analysis using GraphPad Prism fitting algorithm (GraphPad Software, Inc.). […]

FSHR [2] = conditions: low doses; cited from earlier work
Source text: Their small effective hydrodynamic diameter, high washout rates, and rapid renal filtration are highly valued for in vivo imaging, where an optimal tumor-to-reference tissue ratio (TRR) can be quickly reached. This was de ...

Row | binding to FSHR, in words (FSHR on OVCAR-3 cells; BI-10 binding curves) | Molecule | EC50 (FSHR-rich Sertoli cells) | binding to FSHR, in words (FSHR [1]; functional radio ligand receptor assay, synthetic BI-10) | inhibition of FSH-stimulated estradiol and cAMP synthesis, in words (FSHR [1]; synthetic BI-10 peptide, high concentrations) | physiologic effects (FSHR [2]) | EC50 (FSHR on OVCAR-3 cells; OVCAR-3 cells, BI-10^FAM, 30 min incubation, 37°C incubator, 1.0-500 μM, wash with PBS, 5 mM EDTA detachment, median FITC fluorescence, flow cytometry, TOPO-3 viable gate, 10,000 cells, nonlinear regression, R^2=0.93, average of three measurements (Figure 1: n=5), read-out: EC50 (binding affinity, dose response curve))
1 | highly specific but low in affinity | TENLEPNGEGNH2 [BI-10] | ~300 µM | specifically binds to FSHR | inhibits FSH-stimulated estradiol and secondary messenger cAMP synthesis at high concentrations | – | –
2 | – | CC(C)C[C@H](NC(=O)[C@H](CC(N)=O)NC(=O)[C@H](CCC(=O)O)NC(=O)[C@@H](NC(=O)c1ccc2c(c1)C(=O)OC21c2ccc(O)cc2Oc2cc(O)ccc21)[C@@H](C)O)C(=O)N[C@@H](CCC(=O)O)C(=O)N1CCC[C@H]1C(=O)N[C@@H](CC(N)=O)C(=O)NCC(=O)N[C@@H](CCC(=O)O)C(=O)NCC(N)=O [BI-10^FAM] (5FAM-TENLEPNGEG-NH2) | – | – | – | negligible physiologic effects when used in low doses | 160 µM
